Common to all, as to type: ADME, organism-based
A short description of data set [1]: Oral bioavailability in Sprague-Dawley rat at 3 mg/kg. The conditions noted are these: in vivo.
A short description of data set [2]: Half life in Sprague-Dawley rat at 3 mg/kg, po and 5 mg/kg, iv. The conditions noted are these: in vivo.
The nature of data set [3]: AUC in Sprague-Dawley rat at 3 mg/kg, po. The conditions noted are these: plasma. More on the design: dose 3 mg/kg, route oral.
Data set [4] in a line: Clearance in Sprague-Dawley rat at 3 mg/kg, po and 5 mg/kg, iv. The note with it: in vivo.
Data set [5] can be described thus: Volume of distribution at steady state in Sprague-Dawley rat at 3 mg/kg, po and 5 mg/kg, iv. The note with it: in vivo, read-out: Vdss.
Data set [6] in a line: Volume of distribution at steady state in Sprague-Dawley rat at 5 mg/kg, iv. More on the design: dose 5 mg/kg, route intravenous. The note with it: in vivo, read-out: Vdss.
The nature of data set [7]: Oral bioavailability in Sprague-Dawley rat at 30 mg/kg. The note with it: in vivo.
Data set [8] can be described thus: Oral bioavailability in Sprague-Dawley rat at 0.3 mg/kg. The note with it: in vivo.
The nature of data set [9]: Half life in Sprague-Dawley rat at 5 mg/kg, iv. The note with it: in vivo. More on the design: dose 5 mg/kg, route intravenous.
Data set [10] is described as follows: Clearance in Sprague-Dawley rat at 5 mg/kg, iv. Set-up: dose 5 mg/kg, route intravenous. The note with it: in vivo.

From ChEMBL document CHEMBL1909544, “Renin inhibitors for the treatment of hypertension: design and optimization of a novel series of tertiary alcohol-bearing piperidines” (Bioorg Med Chem Lett, 2011) come the findings set out here.

Each structure is given as a SMILES string.

Regarding `O=C([C@H]1CNCC[C@]1(OCC(O)CO)c1ccc(F)c(F)c1)N(Cc1cn(Cc2cccc(F)c2)c2cccc(F)c12)C1CC1` (mixture of isomers), the bioavailability in [1] is under 1%. For the same compound, the half-life in data set [2] was 2.6 h. The compound further yielded an area under the curve (AUC) in [3] of 0.04 µM·h. In addition, in [4], the clearance amounted to 16 mL/min/kg. In [5], the Vd came to 0.4 L/kg.
In turn, `O=C([C@H]1CNCC[C@]1(O)c1ccc(F)c(F)c1)N(Cc1cn(Cc2cccc(F)c2)c2cccc(F)c12)C1CC1` (racemic) displayed a bioavailability in data set [1] of 37%. Besides, the half-life in data set [2] is 9.4 h. This compound showed an AUC in data set [3] of 0.34 µM·h. In [4], this compound registered a clearance of 93 mL/min/kg. Further, in data set [5], the Vd was determined as 48 L/kg.
For the compound `COCCCc1cc(CN(C(=O)C2CNCCC2(O)c2ccc(F)c(F)c2)C2CC2)cc(OCCOC)c1` (single isomer, unassigned), the Vd in data set [6] was found to be 5 L/kg. The bioavailability in data set [1] was found to be 29%; in data set [7], 18%; in data set [8] it was 17%. For the same compound, the half-life in data set [9] is 1.5 h. The compound further came in with a clearance in data set [10] of 36 mL/min/kg.

The bioavailability is the share of a dose that reaches the circulation, judged against a reference dose that is usually intravenous. Low readings indicate poor availability, high ones good availability. In general, half-life refers to how long it takes for the measured level to halve. Low readings indicate rapid decline, high ones slow decline. By AUC is commonly meant concentration integrated over time. Low readings indicate less exposure, high ones more exposure.
